Results published in patent US12427134B2, “Methods of reducing the risk of cardiovascular events in a subject with atrial fibrillation and/or atrial flutter” (priority 2019, dated 2025).

System: hypertriglyceridemic patients with cardiovascular disease or at high risk for cardiovascular disease
Assay: REDUCE-IT: clinical laboratory evaluation (hematology, liver function tests, clinical chemistry, drug-induced liver injury)
Format: in vivo, human
Method: Clinical Laboratory Procedures and Evaluations: All clinical laboratory determinations for screening and safety were performed by a certified clinical laboratory under the supervision of the Sponsor or its designee. Whenever possible and appropriate, samples for the clinical laboratory procedures were collected after fasting for at least 10 hours. For the purposes of this study, fasting was defined as nothing by mouth except water (and any essential medications). The investigator reviewed and signed all laboratory test reports. At screening, patients who had laboratory values that are outside the exclusionary limits specified in the exclusion criteria were not enrolled in the study (patients would have been considered for the study if values were classified as not clinically significant by the investigator). After randomization, the investigator was notified if laboratory values were outside of their normal range. In this case, the investigator was required to conduct clinically appropriate follow-up procedures.
Safety Laboratory Tests: The safety parameters were analyzed by a certified clinical laboratory at screening (Visit 1 or Visit 1.1), Randomization visit (Visit 2; Day 0), Visit 3 (Day 120; −4 Months) and all other follow-up visits including the Last Visit. The safety laboratory tests included: • Hematology with complete blood count (CBC), including RBC, hemoglobin (Hgb), hematocrit (Hct), white cell blood count (WBC), white cell differential, and platelet count; and • Biochemistry panel including total protein, albumin, alkaline phosphatase, alanine am inotransferase (ALT/SGPT), aspartate am inotransferase (AST/SGOT), total bilirubin, glucose, calcium, electrolytes (sodium, potassium, chloride), blood urea nitrogen (BUN), serum creatinine, uric acid, creatine kinase, and HbA1c.
Each laboratory result was classified as low (L), normal (N), and high (H) at each visit according to the laboratory-supplied normal range. The shift from baseline was presented for each post-baseline visit and overall post-baseline visits. If multiple measurements for a test parameter were available for a post-baseline patient-visit, the most extreme value was included in the shift table. For shift from baseline to overall post-baseline visits, values from all visits (including unscheduled measurements) were included. The chemistry shift table included fasting lipid parameters. The continuous lipid values were presented as part of the efficacy analysis.
A treatment-emergent PCS high value at any time was defined as a change from a value less than or equal to the upper reference limit at baseline to a PCS high value at any post-baseline measurement. A treatment-emergent PCS low value at any time was defined as a change from a value greater than or equal to the lower reference limit at baseline to a PCS low value at any post-baseline measurement. Number (%) of patients with any post-baseline PCS laboratory values was summarized by treatment group. A listing of patients with PCS laboratory values at any time, i.e., baseline or at any post-baseline visit, were included.
DILI cases were investigated through the following analyses: • A graph of distribution of peak values of alanine aminotransferase (ALT) versus peak values of total bilirubin (TBL) during the treatment period was prepared, using a logarithmic scale. In the graph, for each patient, the peak TBL times the Upper Limit of Normal (ULN) were plotted against the peak ALT times the ULN, where the peak TBL and peak ALT may or may not have happened on the same day of liver testing. The graph was divided into 4 quadrants with a vertical line corresponding to 3×ULN for ALT and a horizontal line corresponding to 2×ULN for TBL. […]

[1] = Baseline (Visit 2), Safety population
[2] = Visit 9 (n = 8), Safety population
[3] = Visit 9 (only 8 patients had data)
[4] = any post-baseline visit, 3975 patients with data
[5] = any post-baseline visit, 3977 patients with data

CC/C=C\C/C=C\C/C=C\C/C=C\C/C=C\CCCC(=O)OCC [AMR101, eicosapentaenoic acid ethyl ester]
ALT, mean baseline value [1]: 27.72 U/L
AST, mean baseline value [1]: 24.47 U/L
Hemoglobin, mean baseline value [1]: 141.16 g/L
Platelet Count, mean baseline value [1]: 2.4301e+11 L⁻¹
ALT, mean change from baseline (Last Visit, Safety population): −2.33 U/L
AST, mean change from baseline (Last Visit, Safety population): −1.25 U/L
Hemoglobin, mean change from baseline (Last Visit, Safety population): -1.12 g/L
Platelet Count, mean change from baseline (Last Visit, Safety population): -5.52e+09 L⁻¹
Increase of 3×ULN in ALT or AST and increase of 2×ULN in total bilirubin, patients (Safety population): one patient
Increase of 3×ULN in ALT or AST, increase of 2×ULN in total bilirubin, and alkaline phosphatase ≤2×ULN, patients (Safety population): one patient
Individual study drug-related hematology and clinical chemistry TEAEs, incidence (Safety population): < 0.2%
Patients with basophils PCS high >1% (Safety population): 47.0%
Patients with treatment-emergent total bilirubin >ULN (Safety population): 7.5%
TEAE blood glucose increased, patients (Safety population): 2.6%
TEAE hyperglycemia, patients (Safety population): 1.7%
TEAE hypoglycemia, patients (Safety population): 1.5%
ALT, mean change from baseline (Visit 3, Safety population): 0.39 U/L
AST, mean change from baseline (Visit 3, Safety population): 0.24 U/L
Hemoglobin, mean change from baseline (Visit 3, Safety population): 0.17 g/L
Platelet Count, mean change from baseline (Visit 3, Safety population): -2.36e+09 L⁻¹
ALT, mean change from baseline (Visit 4, Safety population): −0.28 U/L
AST, mean change from baseline (Visit 4, Safety population): 0.03 U/L
Hemoglobin, mean change from baseline (Visit 4, Safety population): 0.85 g/L
Platelet Count, mean change from baseline (Visit 4, Safety population): -4.85e+09 L⁻¹
ALT, mean change from baseline (Visit 5, Safety population): −1.27 U/L
AST, mean change from baseline (Visit 5, Safety population): −0.83 U/L
Hemoglobin, mean change from baseline (Visit 5, Safety population): 1.39 g/L
Platelet Count, mean change from baseline (Visit 5, Safety population): -1.05e+10 L⁻¹
ALT, mean change from baseline (Visit 6, Safety population): −1.66 U/L
AST, mean change from baseline (Visit 6, Safety population): −1.10 U/L
Hemoglobin, mean change from baseline (Visit 6, Safety population): 0.92 g/L
Platelet Count, mean change from baseline (Visit 6, Safety population): -1.368e+10 L⁻¹
ALT, mean change from baseline (Visit 7, Safety population): −2.80 U/L
AST, mean change from baseline (Visit 7, Safety population): −1.56 U/L
Hemoglobin, mean change from baseline (Visit 7, Safety population): 0.64 g/L
Platelet Count, mean change from baseline (Visit 7, Safety population): -1.73e+10 L⁻¹
Platelet count, greatest mean decrease from baseline excluding Visit 9 (Visit 8): 1.85e+10 L⁻¹
ALT, mean change from baseline (Visit 8, Safety population): −3.42 U/L
AST, mean change from baseline (Visit 8, Safety population): −1.66 U/L
Hemoglobin, mean change from baseline (Visit 8, Safety population): -0.33 g/L
Platelet Count, mean change from baseline (Visit 8, Safety population): -1.854e+10 L⁻¹
ALT, mean change from baseline [2]: −1.25 U/L
AST, mean change from baseline [2]: 0.25 U/L
Hemoglobin, mean change from baseline [2]: -4.13 g/L
Platelet Count, mean change from baseline [2]: -3.288e+10 L⁻¹
Hemoglobin, greatest mean change from baseline [3]: -4.1 g/L
Platelet count, greatest mean decrease from baseline [3]: 3.29e+10 L⁻¹
ALT or AST >3 × ULN and Total Bilirubin >2 × ULN, % patients [4]: (0.0) %
ALT or AST >3 × ULN and Total Bilirubin >2 × ULN, n patients [4]: 1
ALT or AST >3 × ULN, % patients [4]: (1.5) %
ALT or AST >3 × ULN, Total Bilirubin >2 × ULN, and ALP ≤2 × ULN, % patients [4]: (0.0) %
ALT or AST >3 × ULN, Total Bilirubin >2 × ULN, and ALP ≤2 × ULN, n patients [4]: 1
ALT or AST >3 × ULN, n patients [4]: 61
PCS High >3 × ULN (AST) and >2 × ULN (Total Bilirubin), % patients [4]: (0.0) %
PCS High >3 × ULN (AST) and >2 × ULN (Total Bilirubin), n patients [4]: 1
Treatment-emergent AST >3 × ULN, % patients [4]: (0.9) %
Treatment-emergent AST >3 × ULN, n patients [4]: 36
Treatment-emergent AST >ULN, % patients [4]: (23.4) %
Treatment-emergent AST >ULN, n patients [4]: 932
PCS High >3 × ULN (ALT) and >2 × ULN (Total Bilirubin), % patients [5]: (0.0) %
PCS High >3 × ULN (ALT) and >2 × ULN (Total Bilirubin), n patients [5]: 1
Treatment-emergent ALP >2 × ULN, % patients [5]: (0.5) %
Treatment-emergent ALP >2 × ULN, n patients [5]: 18
Treatment-emergent ALP >ULN, % patients [5]: (7.7) %
Treatment-emergent ALP >ULN, n patients [5]: 308
Treatment-emergent ALT >3 × ULN, % patients [5]: (1.1) %
Treatment-emergent ALT >3 × ULN, n patients [5]: 44
Treatment-emergent ALT >ULN, % patients [5]: (32.9) %
Treatment-emergent ALT >ULN, n patients [5]: 1308
Treatment-emergent Total Bilirubin >2 × ULN, % patients [5]: (0.5) %
Treatment-emergent Total Bilirubin >2 × ULN, n patients [5]: 21
Treatment-emergent Total Bilirubin >ULN, % patients [5]: (7.5) %
Treatment-emergent Total Bilirubin >ULN, n patients [5]: 297
Hemoglobin, greatest mean change from baseline excluding Visit 9 (final visit): -1.1 g/L
